From patent US7384950B2, “Thienopyrimidinediones and their use in the modulation of autoimmune disease” (AstraZeneca AB, priority 2001, dated 2008) come the findings set out here.

In this experiment the test system is PMA/ionomycin-stimulated peripheral blood mononuclear cell (PBMC). Kind of experiment: Inhibition of PMA/ionomycin-stimulated peripheral blood mononuclear cell proliferation. Particulars: human PBMC from a single donor, 10% human serum, PMA 0.5 ng/ml and ionomycin 500 ng/ml, 72 hours, 3H-thymidine incorporation; read-out: IA50 (the source's name). The class given is cell-based. How it is done: The ability of compounds which can inhibit PMA/ionomycin-stimulated peripheral blood mononuclear cell proliferation can be assessed, for example using the procedure set out below:
Inhibition of PMA/ionomycin-stimulated Peripheral Blood Mononuclear Cell Proliferation
The assay for PMA/ionomycin-stimulated PBMC proliferation was performed in 96-well flat bottomed microtitre plates. Compounds were prepared as 10 mM stock solutions in dimethyl sulfoxide. A 50-fold dilution of this was prepared in RPMI and serial dilutions were prepared from this solution. 10 μl of the 50-fold diluted stock, or dilutions of it, were added to the well to give concentrations in the assay starting at 9.5 μM and going down. Into each well was placed 1×10^5 PBMC, prepared from human peripheral blood from a single donor, in RPMI1640 medium supplemented with 10% human serum, 2 mM glutamine and penicillin/streptomycin. Phorbol myristate acetate (PMA) (0.5 ng/ml final concentration) and ionomycin (500 ng/ml final concentration) were added to these cells in supplemented RPMI1640 medium (as above) so that the final volume of the assay was 0.2 ml. […] The level of radioactivity incorporated by the cells was then determined and this is a measure of proliferation.
Background: Incorporation of labelled thymidine or its analogues reports DNA synthesis.

Take `CC(C)n1c(=O)n(C)c(=O)c2c(C(=O)N3C[C@H](O)CO3)c(Cc3ccnc4ccccc34)sc21` [Example 20, (S) 5-{4-Hydroxyisoxazolidin-2-ylcarbonyl}-3-methyl-1-(isopropyl)-6-(4-quinolinylmethyl)thieno[2,3-d]pyrimidine-2,4(1H,3H)-dione]: the IC50 was determined as 5 nM.
